Laboratory results as given in patent publication US20250109139A1, “TRICYCLIC COMPOUND, AND PREPARATION METHOD THEREFOR AND USE THEREOF” (SHANGHAITECH UNIVERSITY, priority 2022, published 2025).
Where two headings read alike, the source gives them in different places.

What was measured:
dopamine D2 receptors = dopamine D2 receptors (Homo sapiens (Human), UniProt P14416); test: Dopamine D2 receptor Gαi1 BRET (G protein trimer dissociation); assay type: cell-based; settings: for Emax: relative to endogenous ligand dopamine, read-out: Gαi1 BRET Emax % ± SEM
Chain of dopamine D2 receptors (P14416 whole entry): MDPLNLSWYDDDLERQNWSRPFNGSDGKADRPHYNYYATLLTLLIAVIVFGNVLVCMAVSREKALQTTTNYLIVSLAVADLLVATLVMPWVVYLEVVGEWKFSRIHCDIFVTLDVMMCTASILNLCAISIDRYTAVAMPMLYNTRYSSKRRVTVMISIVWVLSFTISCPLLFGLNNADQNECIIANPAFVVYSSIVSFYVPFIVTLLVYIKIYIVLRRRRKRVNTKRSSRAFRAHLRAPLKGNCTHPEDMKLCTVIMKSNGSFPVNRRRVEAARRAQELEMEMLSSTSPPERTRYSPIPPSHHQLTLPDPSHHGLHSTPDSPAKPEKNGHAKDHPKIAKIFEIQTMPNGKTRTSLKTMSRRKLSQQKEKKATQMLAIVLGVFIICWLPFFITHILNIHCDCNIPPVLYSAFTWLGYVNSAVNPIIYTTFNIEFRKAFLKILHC
Procedure, shortened: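 G-protein assay: cells co-transfected with D2 receptor, Gαi1-Rluc, Gβ3 and Gγ9-GFP (1 μg each); β-arrestin2 assay: D2-Rluc, GRK2 and GFP2-β-arrestin2 co-transfected. Cells were reseeded after one day and tested on day three. Drug dilution series were added in duplicate with coelenterazine 400a (5 μM final), and the BRET signal was read.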

5-HT2A receptors = 5-HT2A receptors (Homo sapiens (Human), UniProt P28223); test: 5-HT2A receptor radioligand competition binding assay ([3H]-ketanserin); settings: for Ki: read-out: Ki
Chain of 5-HT2A receptors (P28223 whole entry): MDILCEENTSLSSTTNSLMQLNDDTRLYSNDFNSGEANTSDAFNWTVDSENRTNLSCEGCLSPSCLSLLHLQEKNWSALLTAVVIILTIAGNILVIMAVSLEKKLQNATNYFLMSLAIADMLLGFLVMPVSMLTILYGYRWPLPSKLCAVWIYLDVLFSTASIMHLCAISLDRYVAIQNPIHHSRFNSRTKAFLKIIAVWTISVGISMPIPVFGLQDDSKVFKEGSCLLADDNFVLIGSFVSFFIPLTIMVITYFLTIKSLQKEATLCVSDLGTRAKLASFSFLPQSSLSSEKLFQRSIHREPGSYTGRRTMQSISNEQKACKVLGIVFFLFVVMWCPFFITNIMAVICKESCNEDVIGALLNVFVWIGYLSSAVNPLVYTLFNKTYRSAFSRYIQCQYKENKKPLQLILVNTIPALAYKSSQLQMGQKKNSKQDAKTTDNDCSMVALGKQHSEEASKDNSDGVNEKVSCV
Description: The affinity of the compounds of the present disclosure for 5-HT2A receptors was determined by a radioligand competition binding assay. In the first step, a cell membrane component containing specific 5-HT2A receptor was prepared. A 10 cm dish was used for transfection with […] of 5-HT2A receptors and 40 μL of PEI. After 48 hours, the 10 cm dish was taken out from the cell incubator and the cultured cells had expressed the 5-HT2A receptors. A vacuum pump was used to suck off the culture medium, 3 mL of lysis buffer was added to each culture dish, and the cells were placed in a 4° C. cold room for 10 minutes. After the cells were detached, the cells were transferred to a 15 mL centrifuge tube and centrifuged at 1500 rpm for 5 minutes at 4° C., and the supernatant was discarded. The cell pellet was transferred to a tissue homogenizer, and 3 mL of lysis buffer was added and fully ground until the cells were broken. Then, cell suspension was equally aliquoted into several EP tubes, centrifuged at 12000 rpm for 5 minutes at 4° C., and the supernatant was discarded. The precipitate was the cell membrane component containing the 5-HT2A receptors. […] First, a standard binding buffer was added to the cell membrane component containing the 5-HT2A receptors, and the cell membrane was disrupted and resuspended with an electric tissue homogenizer. 30 μL of membrane protein suspension was added to each well of a 96-well plate. Then, 30 μL of different drugs were added to the 96-well plate sequentially from bottom to top to ensure that the final drug concentrations were 10^−5 M, 10^−6 M, 10^−7 M, 10^−8 M, 10^−9 M, and 0 M, with two replicates per treatment. Next, 30 μL of [^3H]-ketanserin was added to each well of the 96-well plate. The plate was incubated at room temperature in the dark for 2 hours. Detection was conducted. The machine readout value reflected the amount of [^3H]-ketanserin bound on the membrane, and after further data processing, the affinity Ki values of different compounds for the 5-HT2A receptors were obtained.

[1] = Pharmacokinetics in SD rats, single dose intragastric and intravenous; assay type: in vivo; settings: for Cmax / half-life / Vd / AUC(0-t) / clearance / MRT / bioavailability / Tmax: male, rat, plasma; for half-life: read-out: Elimination half-life t1/2 (converted); for Vd: read-out: Apparent volume of distribution Vdss; for AUC(0-t): read-out: Area under the drug-time curve AUC0-t; for clearance: read-out: Clearance CL; for MRT: read-out: Mean residence time MRT; for bioavailability: read-out: Bioavailability F; for Tmax: read-out: Time to peak concentration tmax
Description: Testing of pharmacokinetic properties of compounds administered in a single dose to SD rats by intragastric administration and intravenous injection
After the compound was administered in a single dose to male SD rats, blood samples were collected at different time points. The concentration of the compound in the plasma of the rats was determined by LC-MS/MS and the relevant pharmacokinetic parameters were calculated to investigate the pharmacokinetics of the compound in rats.
Male SD rats were provided by Suzhou JOINN Laboratories Co., Ltd. SD rats were fasted with free access to water for 12 to 14 hours one day before administration, and were fed 4 hours after administration.
For each compound, the […] were divided into two groups: intravenous injection and intragastric administration, with 3 rats in each group. For both intravenous injection (administered at a dose of 3 mg/kg and a concentration of 0.6 mL/kg) and intragastric administration (administered at a dose of 10 mg/kg and a concentration of 1 mL/kg), 5% DMSO+5% Solutol+90% saline was used as the vehicle.
Sample collection: 0.10 mL of blood was collected from the orbit of each animal in IV/PO groups each time at 5 minutes, 15 minutes, 30 minutes, 1 hour, 2 hours, 4 hours, 6 hours, 8 hours, and 24 hours after administration of the test compound, and anticoagulated with EDTA-K2. Blood samples were placed on ice after collection, and plasma was separated by centrifugation within 30 minutes (centrifugation conditions: 5000 rpm, 10 minutes, 4° C.). The collected plasma was stored at −80° C. before analysis.
Data processing: The data acquisition and control system software was Analyst 1.5.1 software (Applied Biosystem). The peak integration method of chromatographic samples was automatic integration; the ratio of the peak area of the sample to the peak area of the internal standard was used as an index for regression with the concentration of the sample. […] Pharmacokinetic parameters were analyzed with a non-compartmental model using WinNonlin Professional v6.3 (Pharsight, USA). Cmax was the measured maximum plasma concentration, the area under the plasma concentration-time curve AUC(0→t) was calculated by the trapezoidal method, and tmax was the time to peak plasma concentration after administration. Experimental data were presented as “Mean±SD” (n≥3) or “Mean” (n=2).

[2] = read-out: Gαi1 BRET pEC50 ± SEM (converted)
[3] = unit printed only in Cariprazine cell, read-out: Gαi1 BRET EC50
[4] = [3H]-ketanserin, 293T membranes
[5] = intravenous injection, 3 mg/kg, read-out: Peak drug concentration C0 or Cmax
[6] = oral administration, 10 mg/kg, read-out: Peak drug concentration Cmax

| Structure (SMILES) | EC50 (dopamine D2 receptors; [2]) [µM] | Emax (dopamine D2 receptors) [%] | EC50 (dopamine D2 receptors; [3]) [µM] | affinity for 5-HT2A receptors (in words) (5-HT2A receptors) | Ki (5-HT2A receptors; [4]) [µM] | Cmax [1, 5] [µg/mL] | half-life ([1]; oral administration, 10 mg/kg) [h] | Vd ([1]; intravenous injection, 3 mg/kg) [L/kg] | AUC(0-t) ([1]; intravenous injection, 3 mg/kg) [µg·h/mL] | clearance ([1]; intravenous injection, 3 mg/kg) [L/h/kg] | half-life ([1]; intravenous injection, 3 mg/kg) [h] | MRT ([1]; intravenous injection, 3 mg/kg) [h] | AUC(0-t) ([1]; oral administration, 10 mg/kg) [µg·h/mL] | bioavailability ([1]; oral administration, 10 mg/kg) [%] | MRT ([1]; oral administration, 10 mg/kg) [h] | Cmax [1, 6] [µg/mL] | Tmax ([1]; oral administration, 10 mg/kg) [h] | further results |
| --- | --- | --- | --- | --- | --- | --- | --- | --- | --- | --- | --- | --- | --- | --- | --- | --- | --- | --- |
| COc1cccc2c3c(oc12)CN(CCCCOc1ccc2ccc(=O)[nH]c2c1)CC3 [I-A1, 7-(4-(8-methoxy-3,4-dihydrobenzofuro[2,3-c]pyridin-2(1H)-yl)butoxy)quinolin-2(1H)-one] | 0.0234 | 55 | 0.0488 | very weak affinity | 1.79 | 1.33 ± 0.117 | 3.91 ± 0.3 |  |  |  |  |  |  |  |  |  |  | pKi ± SEM (5-HT2A receptors; [4]): (5.74 ± 0.03); Area under the drug-time curve AUC0-t ([1]; intravenous injection, 3 mg/kg): 2.991 ± 0.212 µg·h/mL; Clearance CL ([1]; intravenous injection, 3 mg/kg): 1 ± 0.0672 L/h/kg; Elimination half-life t1/2 ([1]; intravenous injection, 3 mg/kg): 3.48 ± 0.1 h; Area under the drug-time curve AUC0-t ([1]; oral administration, 10 mg/kg): 8.916 ± 3.642 µg·h/mL; Bioavailability F ([1]; oral administration, 10 mg/kg): 88.8 ± 36%; Peak drug concentration Cmax ([1]; oral administration, 10 mg/kg): 1.555 ± 0.362 µg/mL; Time to peak concentration tmax ([1]; oral administration, 10 mg/kg): 0.50 ± 0 h |
| COc1cccc2c3c(oc12)CN(CC[C@H]1CC[C@H](NC(=O)N(C)C)CC1)CC3 [I-A12, 3-(trans-4-(2-(8-methoxy-3,4-dihydrobenzofuro[2,3-c]pyridin-2(1H)-yl)ethyl)cyclohexyl)-1,1-dimethylurea] |  | 70 | 0.00138 |  |  | 0.824 ± 0.299 | 3.58 ± 0.5 | 9.14 ± 1.5 | 1.1 ± 0.215 | 2.72 ± 0.474 | 4.14 ± 0.7 | 3.36 ± 0.2 | 5.66 ± 2.66 | 151 ± 71 | 4.42 ± 0.66 | 0.963 ± 0.322 | 0.833 ± 1 |  |
| COc1cccc2c3c([nH]c12)CN(CC[C@H]1CC[C@H](NC(=O)N(C)C)CC1)CC3 [I-B7, 3-(trans-4-(2-(8-methoxy-1,3,4,9-tetrahydro-2H-pyrido[3,4-b]indol-2-yl)ethyl)cyclohexyl)-1,1-dimethylurea] | 0.0112 | 21 | 0.017 | very weak affinity | 3.51 | 0.33 ± 0.061 | 5.12 ± 0.7 | 7.56 ± 0.4 | 2.35 ± 0.127 | 1.26 ± 0.072 | 3.91 ± 0.3 | 6.01 ± 0.2 | 10.2 ± 0.945 | 128 ± 12 | 8.08 ± 0.23 | 0.734 ± 0.034 | 3.17 ± 4 |  |
| COc1cccc2c1cc1n2CCN(CCCCOc2ccc3ccc(=O)[nH]c3c2)C1 [I-C1, 7-(4-(9-methoxy-3,4-dihydropyrazino[1,2-a]indol-2(1H)-yl)butoxy)quinolin-2(1H)-one] | 0.00631 | 72 | 0.00794 |  |  | 3.31 ± 0.349 | 7.36 ± 4.2 | 2.16 ± 0.1 | 4.97 ± 0.751 | 0.606 ± 0.084 | 3.63 ± 0.7 | 3.58 ± 0.3 | 8.14 ± 2.05 | 48.8 | 10 ± 6.5 | 1.15 ± 0.198 | 0.25 |  |
| COc1cccc2c1cc1n2CCN(CCCCOc2ccc3c(c2)NC(=O)CC3)C1 [I-C2, 7-(4-(9-methoxy-3,4-dihydropyrazino[1,2-a]indol-2(1H)-yl)butoxy)-3,4-dihydroquinolin-2(1H)-one] | 0.0447 | 81 | 0.0463 |  |  | 3.34 ± 0.629 | 4.09 ± 1.6 | 1.51 ± 0.3 | 2.79 ± 0.842 | 1.15 ± 0.408 | 1.79 ± 1.1 | 1.38 ± 0.3 | 7.73 ± 0.467 | 82.4 ± 5 | 5.46 ± 0.09 | 1.31 ± 0.701 | 0.33 ± 0.14 |  |
